Experimental data reported in patent US5468730A, “Methods for the treatment of non-IgE-mediated diseases” (Dura Pharmaceuticals, Inc., priority 1992, dated 1995).
Several values for one entry are separate records, joined by “and”; a condition that tells them apart may be missing. Identical values can stand only once. No end group written: not given here.

What was measured:
[1] = system: chronic idiopathic urticaria (non-IgE-mediated); details: human, in vivo
[2] = system: immune complex-induced colitis; assay: Immune complex-mediated ulcerative colitis model (formalin + IgG immune complexes) in mice; type: in vivo, male BKA mice (outbred Swiss albino)
Procedure: A mouse model of intestinal inflammation was employed wherein the efficacy of pentigetide in reducing inflammation induced by formalin and complement-fixing IgG immune complexes was measured. This model is particularly useful as a model of human ulcerative colitis and shares many clinical and histological functions of the human disease including sensitivity to glucocorticoids, sulfasalazine and 5-aminosalicylic acid (see L. P. Walsh, et al., British J. Pharm. 91:294 (1987); A. Blackham, et al., British J. Pharm. 89:694 (1986); L. D. Walsh and I. J. Zeitlin, British J. Pharm. 92:741 (1987)). The mouse model of intestinal inflammation used in these studies is induced by the exposure of the animals to chemicals which are known to trigger inflammatory processes in both animals and humans. […]
Colonic tissue water content was determined by tissue weight loss on drying of colonic tissues. […]
The response to immune complex alone was determined quantitatively by subtracting the mean value in group B from the mean value in group C. An estimate of the percentage reduction in this response produced by the drug was calculated as: [formula] […] Statistical significance was determined using the non-parametric Mann-Whitney U-test. […]

[3] = system: binding of IgE to lymphoblastoid tissue culture cells; details: two trials; reported in U.S. Pat. No. 4,161,522; cited from earlier work
[4] = system: carrageenan-induced inflammation; assay: Carrageenan-induced footpad edema in mice; type: in vivo, female Balb/C mice
Procedure: In order to examine the ability of pentigetide to inhibit carrageenan-induced inflammation, female Balb/C mice were injected with 0.025 ml of 1.0% carrageenan solution (type 1x carrageenan: Sigma No. C-1013, Lot No. 86F-0698) or saline in the right hind footpad 5 minutes after intravenous tail vein injection of 0.2 ml pentigetide (1.0 mg/kg) or saline solution.

[5] = system: sheep erythrocyte (SRBC)-induced DTH reactions; assay: Sheep erythrocyte (SRBC)-induced DTH footpad swelling in mice; type: in vivo, female Balb/C mice; details: indomethacin 1.0 mg/kg on day 4 (positive control); footpad volume about 24 h after challenge
[6] = system: Tetanus toxoid-induced DTH reactions; set-up: species or system female Balb/C mice; details: mouse, in vivo

DSDPR [pentigetide, Asp-Ser-Asp-Pro-Arg]
side effects from the treatment [1]: did not experience any side effects

C[C@]12C=CC(=O)C=C1CC[C@@H]1[C@@H]2[C@@H](O)C[C@@]2(C)[C@H]1CC[C@]2(O)C(=O)CO [prednisolone]
reduction of colonic edema ([2]; prednisolone 5.0 mg/kg i.p. for three days prior to inflammation induction and daily thereafter, p<0.01): 86.2%
reduction of colonic edema (printed in the colitic sign score paragraph) ([2]; prednisolone 5.0 mg/kg i.p., p<0.001): 93.8%

Asn-Ser-Asp-Pro-Arg (NSDPR; printed: Asn-Ser-Asp-Pro-Arg) [peptide reported in U.S. Pat. No. 4,161,522]
activity: ability to block binding of IgE to lymphoblastoid tissue culture cells [3]: lower activity

Asn-Ser-Asn-Pro-Arg (NSNPR; printed: Asn-Ser-Asn-Pro-Arg) [peptide reported in U.S. Pat. No. 4,161,522]
activity: ability to block binding of IgE to lymphoblastoid tissue culture cells [3]: lower activity

[-Cys-Ala-Asn-Ser-Asn-Pro-Arg]2
activity: ability to block binding of IgE to lymphoblastoid tissue culture cells [3]: 9% and 12%

COc1ccc2c(c1)c(CC(=O)O)c(C)n2C(=O)c1ccc(Cl)cc1 [Indomethacin, indomethacin]
Percent Inhibition ([4]; 1.0 hours after carrageenan injection, indomethacin 10 mg/kg s.c. 24 hours prior to carrageenan): -35%
Percent Inhibition ([4]; 2.0 hours after carrageenan injection, indomethacin 10 mg/kg s.c.): -60%
Percent Inhibition ([4]; 4.0 hours after carrageenan injection, indomethacin 10 mg/kg s.c.): -39%
Percent Inhibition ([4]; 6.0 hours after carrageenan injection, indomethacin 10 mg/kg s.c.): -47%
inhibition [5]: 43%
inhibition [6]: 45%
